# Experimental data published in patent US4130647A, “Methods for treating congestive heart failure and ischemic heart disease” (priority 1977, dated 1978).
# Values joined by “and” are separate entries in the source; they are usually repeats but may differ in a detail not shown here. Equal entries are not always repeated.
# Tests used:
# [1] = test system: patients with chronic left sided congestive heart failure; test: Resting and exercise blood pressure, heart rate, ST-segment depression and cardiothoracic ratio, trimazosin (Example 3); format: in vivo, human; settings: for Cardiothoracic ratio / Exercise diastolic blood pressure / Exercise heart rate / Exercise systolic blood pressure / Exercise systolic pressure times heart rate/100 / Maximal ST-segment depression below resting level / Resting diastolic blood pressure / Resting heart rate / Resting systolic blood pressure / Resting systolic pressure times heart rate/100: mean
# Source text: Sixteen men between 41 and 66 years of age with chronic left sided congestive heart failure were subjects. Twelve patients had coronary heart disease with an old healed myocardial infarction, one patient had alcoholic cardiomyopathy, and three patients had idiopathic cardiomyopathy as the cause of their chronic heart failure. All 16 patients had cardiomegaly on physical examination and on their chest roentgenogram, a left ventricular third heart sound heard by auscultation, and evidence of pulmonary venous congestion on their chest roentgenogram. Their baseline standing blood pressures ranged between 114 and 150 mm. Hg. systolic and 72 and 100 mm. Hg. diastolic.
# After baseline measurements, all 16 patients received one capsule of single-blind placebo three times daily for two weeks. The patients then received in a double-blind, randomized study trimazosin or placebo for six weeks. Eight patients received one placebo capsule three times daily for weeks one and two, two placebo capsules three times daily for weeks three and four, and three placebo capsules three times daily for weeks five and six of the double-blind period. Seven patients received one 50 mg. trimazosin capsule three times daily for weeks one and two, two 50 mg. trimazosin capsules three times daily for weeks three and four, and three 50 mg. trimazosin capsules three times daily for weeks five and six of the double-blind period. One patient (patient number five on trimazosin) received one 50 mg. trimazosin capsule three times daily for 32 days.
# The patients were seen by one of the investigators, questioned for symptoms, and given a physical examination in the baseline period, at the end of two weeks of single-blind placebo, and at the end of weeks one, two, three, four, five, and six on double-blind medication. A standard 12-lead electrocardiogram and PA and lateral chest roentgenograms were taken in the baseline period, at the end of two weeks of single-blind placebo, and at the end of three weeks and six weeks on double-blind medication.
# Two practice treadmill tests were performed by all patients prior to the baseline period. The patients performed a multi-stage uninterrupted treadmill exercise test until the onset of marked dyspnea in the baseline period, and approximately two hours after their morning dose of medication after two weeks of single-blind placebo, after three weeks of double-blindmedication, and after six weeks of double-blind medication. The patients exercised at a treadmill speed of 1.7 m.p.h. and a treadmill grade of 0% for the first 3 min., a treadmill speed of 1.7 m.p.h. and a treadmill grade of 10% for the next 3 min., at a treadmill speed of 2.5 m.p.h. and a treadmill grade of 12% for the third 3 min. period, and then at a treadmill speed of 3.4 m.p.h. and a treadmill grade of 14%.
# The patients were monitored by telemetry with simultaneous leads II and V5 throughout exercise. […] blood pressures were recorded with the patients in the sitting and standing positions immediately before exercise, with the patients in the standing position at the end of each completed stage of exercise and at the end of exercise, and with the patients in the sitting and standing positions every 1 min. for at least 5 min. after the end of exercise. Blood pressures were recorded with a mercury sphygmomanometer. The heart rates were measured from the electrocardiographic recordings.
# The data listed in Tables 1-4 were analyzed using Student's t test for independent means. Fisher's exact test was used to analyze the data on improvement of symptoms and the data on changes in roentgenographic evidence of pulmonary venous congestion.
# [2] = test system: patients with congestive heart failure; test: Dose-finding of oral trimazosin in congestive heart failure (Example 2); format: in vivo, human; settings: for Change in Heart Rate at Peak / Change in Systolic Pressure at Peak / Time to Peak Effect: individual patients
# Description: Studies were performed in male patients with clinical and radiographic evidence of congestive heart failure due to ischemic or primary cardiomyopathy. To be eligible for the study patients had to have supine systolic blood pressure of at least 100 mm. Hg. and a supine resting cardiac index below 2.5 L/min./m^2, as measured by the non-invasive carbon dioxide rebreathing method [Franciosa, et al., J. Lab. Clin. Med., 88, 662 (1976) and Franciosa, et al., Circulation, 55, 449 (1977)]. Six patients met these criteria and were selected for the study.
# After obtaining written informed consent, patients were entered into a 2 day dose finding period during which single daily doses of trimazosin were given and blood pressure and heart rate monitored for 4 hours. On day one 100 mg. was given; if no response or side effects occurred, 200 mg. was given the next day. For purposes of this study a response was defined as a fall in supine blood pressure to a level equal to 0.2 × control systolic pressure +76 mm. Hg. This formula was arbitrarily chosen so that patients with control systolic blood pressure as low as 100 mm. Hg. would be included, and their pressures could be reduced to 96 mm. Hg. Upon completion to the dose finding period, no trimazosin was given for the next 24 hours to allow for washout of previous doses. After this, hemodynamic studies were performed employing the predetermined doses; if 200 mg. of trimazosin was ineffective, 300 mg. was given for hemodynamic studies.
# [3] = patient number five, four days prior to the myocardial infarction
# [4] = 200 mg. trimazosin oral, mean of 4, ns
# [5] = 200 mg. trimazosin, patient no. 4
structure (smiles),measurement,setting,value
"COc1cc2c(N)nc(N3CCN(C(=O)OCC(C)(C)O)CC3)nc2c(OC)c1OC [trimazosin, 2-hydroxy-2-methylpropyl 4-(4-amino-6,7,8-trimethoxy-2-quinazolinyl)-1-piperazinecarboxylate]","resting systolic blood pressure, change compared with placebo","[1]; 3 weeks, p<0.001",significant decrease
same,"resting product of systolic blood pressure times heart rate, change compared with placebo","[1]; 3 weeks, p<0.005",significant decrease
same,"resting diastolic blood pressure, change compared with placebo","[1]; 3 weeks, p<0.025",significant decrease
same,"diastolic blood pressure at the end of exercise, change compared with placebo","[1]; 6 weeks, p<0.005",significant decrease
same,"resting diastolic blood pressure, change compared with placebo","[1]; 6 weeks, p<0.005",significant decrease
same,"resting systolic blood pressure, change compared with placebo","[1]; 6 weeks, p<0.005",significant decrease
same,"resting product of systolic blood pressure times heart rate, change compared with placebo","[1]; 6 weeks, p<0.01",significant decrease
same,standing systolic blood pressure,"[1]; patient number five, after two weeks of 50 mg. three times daily",104/70
same,"blood pressure, standing position",[1]; [3],104/70
same,"blood pressure, supine position",[1]; [3],106/70
same,Cardiothoracic ratio,[1]; trimazosin 3 weeks,0.559
same,Exercise diastolic blood pressure,[1]; trimazosin 3 weeks,84.8 mm Hg
same,Exercise heart rate,[1]; trimazosin 3 weeks,149.3 beats/min
same,Exercise systolic blood pressure,[1]; trimazosin 3 weeks,156.5 mm Hg
same,Exercise systolic pressure times heart rate/100,[1]; trimazosin 3 weeks,236.4
same,Maximal ST-segment depression below resting level,[1]; trimazosin 3 weeks,1.31 mm
same,Resting diastolic blood pressure,[1]; trimazosin 3 weeks,74.3 mm Hg
same,Resting heart rate,[1]; trimazosin 3 weeks,86.3 beats/min
same,Resting systolic blood pressure,[1]; trimazosin 3 weeks,116.0 mm Hg
same,Resting systolic pressure times heart rate/100,[1]; trimazosin 3 weeks,100.0
same,Cardiothoracic ratio,[1]; trimazosin 6 weeks,0.556
same,Exercise diastolic blood pressure,[1]; trimazosin 6 weeks,80.5 mm Hg
same,Exercise heart rate,[1]; trimazosin 6 weeks,151.0 beats/min
same,Exercise systolic blood pressure,[1]; trimazosin 6 weeks,154.3 mm Hg
same,Exercise systolic pressure times heart rate/100,[1]; trimazosin 6 weeks,235.4
same,Maximal ST-segment depression below resting level,[1]; trimazosin 6 weeks,1.31 mm
same,Resting diastolic blood pressure,[1]; trimazosin 6 weeks,72.5 mm Hg
same,Resting heart rate,[1]; trimazosin 6 weeks,86.5 beats/min
same,Resting systolic blood pressure,[1]; trimazosin 6 weeks,112.0 mm Hg
same,Resting systolic pressure times heart rate/100,[1]; trimazosin 6 weeks,96.9
same,Change in Heart Rate at Peak,[2]; 100 mg. trimazosin oral,-4 beats/min. and -2 beats/min. and -15 beats/min. and -10 beats/min.
same,Change in Systolic Pressure at Peak,[2]; 100 mg. trimazosin oral,-4 mm.Hg. and -22 mm.Hg. and -8 mm.Hg. and -16 mm.Hg. and -9 mm.Hg.
same,Time to Peak Effect,[2]; 100 mg. trimazosin oral,240 min and 120 min and 180 min and 90 min
same,"Time to Peak Effect, mean","[2]; 100 mg. trimazosin oral, mean of 6",155.0 min
same,"Change in Systolic Pressure at Peak, mean","[2]; 100 mg. trimazosin oral, mean of 6, P <0.02",-10.5 mm.Hg.
same,"Change in Heart Rate at Peak, mean","[2]; 100 mg. trimazosin oral, mean of 6, P <0.05",-6.5 beats/min.
same,desired hypotensive response,"[2]; 100 mg. trimazosin, of six patients",2 patients (nos. 5 and 6)
same,Change in Heart Rate at Peak,[2]; 200 mg. trimazosin oral,15 beats/min. and -3 beats/min. and 2 beats/min. and -1 beats/min.
same,Change in Systolic Pressure at Peak,[2]; 200 mg. trimazosin oral,-21 mm.Hg. and -20 mm.Hg. and -8 mm.Hg. and -1 mm.Hg.
same,Time to Peak Effect,[2]; 200 mg. trimazosin oral,240 min and 90 min and 210 min and 180 min
same,"Time to Peak Effect, mean","[2]; 200 mg. trimazosin oral, mean of 4",180.0 min
same,"Change in Heart Rate at Peak, mean",[2]; [4],3.3 beats/min.
same,"Change in Systolic Pressure at Peak, mean",[2]; [4],-12.5 mm.Hg.
same,systolic pressure lowered to the desired goal,"[2]; 200 mg. trimazosin, of four patients",2 patients (nos. 1 and 2)
same,desired reduction in systolic pressure and side effects,"[2]; 200 mg. trimazosin, patient no. 3",neither the desired reduction in systolic pressure nor side effects
same,side effect,[2]; [5],orthostatic light-headedness
same,supine systolic pressure,[2]; [5],essentially no fall
same,standing systolic pressure,"[2]; 200 mg. trimazosin, patient no. 4, fell from 103",91 mm. Hg.
